By IC50 is commonly meant the midpoint of a concentration-inhibition curve.

15 compounds from ChEMBL document CHEMBL5113426, “Design, synthesis and antitumor activity study of PARP-1/HDAC dual targeting inhibitors” (Bioorg Med Chem Lett, 2022) can be followed below.

Calls of active or inactive are those of the source. No cut-off for these calls is given here. A value given as a limit tells only on which side of the number the result lay.

Series [1] concerns the target Poly [ADP-ribose] polymerase 1 (Homo sapiens, UniProt P09874). The experiment in a line: Inhibition of PARP-1 derived from human HeLa cell nucleus. In kind it is subcellular.
Series [2] addresses Histone deacetylase. In words: Inhibition of HDAC derived from human HeLa cell nucleus. Format: subcellular.
Series [3] deals with MDA-MB-231. In words: Antiproliferative activity against human MDA-MB-231 cells assessed as reduction in cell viability measured after 7 days. Format: functional, cell-based. The conditions noted are these: MDA-MB-231, 168 h.
Series [4] concerns ES-2. In words: Antiproliferative activity against human ES2 cells assessed as reduction in cell viability measured after 7 days. Format: functional, cell-based. The conditions noted are these: ES-2, 168 h.
Series [5] relates to DU-145. The experiment in a line: Antiproliferative activity against human DU-145 cells assessed as reduction in cell viability. Format: functional, cell-based.
Series [6] concerns A549. In words: Antiproliferative activity against human A549 cells assessed as reduction in cell viability. Format: functional, cell-based.
The test system of series [7] is HCC1937. In words: Antiproliferative activity against human HCC1937 cells assessed as reduction in cell viability. In kind it is functional, cell-based.
The subject of series [8] is CAPAN-1. The experiment in a line: Antiproliferative activity against human CAPAN-1 cells assessed as reduction in cell viability. Format: functional, cell-based.
The target in series [9] is Histone deacetylase 2 (Homo sapiens, UniProt Q92769). The experiment in a line: Inhibition of HDAC2 (unknown origin).
Series [10] addresses Histone deacetylase 3 (Homo sapiens, UniProt O15379). The experiment in a line: Inhibition of HDAC3 (unknown origin).
Series [11] addresses Histone deacetylase 4 (Homo sapiens, UniProt P56524). The experiment in a line: Inhibition of HDAC4 (unknown origin).
Series [12] addresses T1, Protein deacetylase HDAC6 (Homo sapiens, UniProt Q9UBN7).
T1 sequence (Q9UBN7 whole entry): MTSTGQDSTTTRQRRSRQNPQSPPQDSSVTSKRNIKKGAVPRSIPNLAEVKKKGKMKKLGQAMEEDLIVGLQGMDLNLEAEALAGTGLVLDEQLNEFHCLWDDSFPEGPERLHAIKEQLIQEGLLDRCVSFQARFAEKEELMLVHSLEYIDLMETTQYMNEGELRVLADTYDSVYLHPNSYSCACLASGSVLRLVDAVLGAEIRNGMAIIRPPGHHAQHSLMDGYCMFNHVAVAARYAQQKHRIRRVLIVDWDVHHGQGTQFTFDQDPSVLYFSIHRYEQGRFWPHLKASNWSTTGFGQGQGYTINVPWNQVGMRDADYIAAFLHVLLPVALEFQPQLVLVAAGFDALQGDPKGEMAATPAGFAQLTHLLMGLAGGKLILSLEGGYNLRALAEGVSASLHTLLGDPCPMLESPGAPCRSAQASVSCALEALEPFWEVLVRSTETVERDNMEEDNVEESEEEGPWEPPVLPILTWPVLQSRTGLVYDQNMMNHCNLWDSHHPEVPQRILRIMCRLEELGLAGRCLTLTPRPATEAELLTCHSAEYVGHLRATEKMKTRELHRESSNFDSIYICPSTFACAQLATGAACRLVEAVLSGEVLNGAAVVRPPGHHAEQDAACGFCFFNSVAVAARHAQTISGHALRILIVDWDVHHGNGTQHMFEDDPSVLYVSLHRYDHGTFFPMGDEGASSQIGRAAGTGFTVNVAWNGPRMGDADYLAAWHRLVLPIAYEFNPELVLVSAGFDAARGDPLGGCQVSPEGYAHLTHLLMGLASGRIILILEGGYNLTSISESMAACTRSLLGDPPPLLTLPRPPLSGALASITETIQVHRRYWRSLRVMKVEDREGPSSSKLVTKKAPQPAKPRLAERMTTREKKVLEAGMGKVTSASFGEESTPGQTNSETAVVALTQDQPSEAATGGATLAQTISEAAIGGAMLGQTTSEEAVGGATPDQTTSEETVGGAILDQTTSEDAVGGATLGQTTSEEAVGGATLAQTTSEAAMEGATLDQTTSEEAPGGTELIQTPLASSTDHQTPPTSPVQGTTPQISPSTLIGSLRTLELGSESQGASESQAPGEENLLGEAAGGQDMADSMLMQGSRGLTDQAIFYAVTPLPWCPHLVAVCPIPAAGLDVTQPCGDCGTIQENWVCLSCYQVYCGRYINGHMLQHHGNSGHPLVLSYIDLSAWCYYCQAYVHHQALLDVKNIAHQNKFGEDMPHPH
The experiment in a line: Inhibition of HDAC6 (unknown origin).

Series [13] concerns the target T2, Histone deacetylase 8 (Homo sapiens, UniProt Q9BY41).
T2 sequence (Q9BY41 whole entry): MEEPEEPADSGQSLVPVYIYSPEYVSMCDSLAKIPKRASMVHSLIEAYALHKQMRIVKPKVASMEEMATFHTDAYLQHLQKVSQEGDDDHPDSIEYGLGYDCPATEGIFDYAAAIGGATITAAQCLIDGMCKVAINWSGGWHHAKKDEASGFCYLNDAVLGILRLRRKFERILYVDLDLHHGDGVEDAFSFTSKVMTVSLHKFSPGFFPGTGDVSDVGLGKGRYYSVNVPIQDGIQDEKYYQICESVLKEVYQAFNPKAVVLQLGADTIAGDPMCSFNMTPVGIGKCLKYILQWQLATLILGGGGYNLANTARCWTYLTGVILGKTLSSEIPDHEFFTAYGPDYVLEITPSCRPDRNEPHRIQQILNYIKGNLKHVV
In words: Inhibition of HDAC8 (unknown origin).

The target in series [14] is Vascular endothelial growth factor receptor 2 (Homo sapiens, UniProt P35968). The experiment in a line: Inhibition of VEGFR2 (unknown origin).
The nature of series [15]: Cytotoxicity against human EA.hy 926 assessed as inhibition of cell growth. Format: toxicity, cell-based. The conditions noted are these: EA.hy 926 cells.
The test system of series [16] is HUVEC. The experiment in a line: Antiangiogenesis activity in HUVEC cells assessed as damage in vascular tube structure at 5 to 10 uM by tube formation assay. In kind it is functional, cell-based. The conditions noted are these: Homo sapiens, dose 5-10 µM.
For series [17], the system named is MDA-MB-231. In words: Inhibition of cell migration in human MDA-MB-231 cells at 3 to 10 uM measured upto 48 hrs by wound healing assay. In kind it is functional, cell-based. The note with it: dose 3-10 µM.
Series [18] concerns MDA-MB-436. The experiment in a line: Induction of intracellular ROS generation in human MDA-MB-436 cells assessed as increase in ROS level by DCFH-DA staining based microscopic analysis. In kind it is functional, cell-based. The note with it: dose 1.25-5 µM, DDE = dose-dependent effect.
The subject of series [19] is ES-2. In words: Upregulation of Ac-HH3 expression in human ES2 cells at 10 uM by Western blot analysis. Format: functional, cell-based.
For series [20], the system named is ES-2. In words: Upregulation of Ac-HH4 expression in human ES2 cells at 10 uM by Western blot analysis. In kind it is functional, cell-based.
The subject of series [21] is ES-2. The experiment in a line: Upregulation of Ac-tubulin expression in human ES2 cells at 0.3 uM by Western blot analysis. Format: functional, cell-based. (A western blot detects proteins with antibodies after separation by electrophoresis.)

Poly [ADP-ribose] polymerase 1, sequence (P09874 whole entry): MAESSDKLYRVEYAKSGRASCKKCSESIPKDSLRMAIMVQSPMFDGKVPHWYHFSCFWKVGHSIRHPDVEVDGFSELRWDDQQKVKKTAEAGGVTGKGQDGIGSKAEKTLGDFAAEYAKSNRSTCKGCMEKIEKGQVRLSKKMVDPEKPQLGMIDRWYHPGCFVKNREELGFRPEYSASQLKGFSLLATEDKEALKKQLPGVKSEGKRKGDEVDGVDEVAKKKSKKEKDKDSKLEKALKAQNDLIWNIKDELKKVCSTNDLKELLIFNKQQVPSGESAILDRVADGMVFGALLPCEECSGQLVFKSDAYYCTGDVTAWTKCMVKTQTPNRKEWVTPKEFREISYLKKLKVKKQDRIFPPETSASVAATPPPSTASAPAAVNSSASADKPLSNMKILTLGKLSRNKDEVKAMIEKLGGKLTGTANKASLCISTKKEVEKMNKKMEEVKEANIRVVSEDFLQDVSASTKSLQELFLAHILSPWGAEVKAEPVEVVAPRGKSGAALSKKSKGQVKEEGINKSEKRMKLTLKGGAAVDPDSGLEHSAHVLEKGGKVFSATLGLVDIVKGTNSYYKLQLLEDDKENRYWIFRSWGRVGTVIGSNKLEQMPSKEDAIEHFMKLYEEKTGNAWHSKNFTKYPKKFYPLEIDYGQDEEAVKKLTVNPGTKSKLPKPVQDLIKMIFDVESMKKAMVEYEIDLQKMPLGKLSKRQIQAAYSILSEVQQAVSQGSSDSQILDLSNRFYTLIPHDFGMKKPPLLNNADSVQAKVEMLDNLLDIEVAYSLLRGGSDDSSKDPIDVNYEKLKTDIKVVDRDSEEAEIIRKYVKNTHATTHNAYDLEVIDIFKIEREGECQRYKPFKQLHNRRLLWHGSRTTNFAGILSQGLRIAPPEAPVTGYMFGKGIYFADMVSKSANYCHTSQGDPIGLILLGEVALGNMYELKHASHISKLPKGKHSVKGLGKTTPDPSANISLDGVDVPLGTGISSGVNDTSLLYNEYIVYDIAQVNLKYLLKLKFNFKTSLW
Histone deacetylase 3, sequence (O15379 whole entry): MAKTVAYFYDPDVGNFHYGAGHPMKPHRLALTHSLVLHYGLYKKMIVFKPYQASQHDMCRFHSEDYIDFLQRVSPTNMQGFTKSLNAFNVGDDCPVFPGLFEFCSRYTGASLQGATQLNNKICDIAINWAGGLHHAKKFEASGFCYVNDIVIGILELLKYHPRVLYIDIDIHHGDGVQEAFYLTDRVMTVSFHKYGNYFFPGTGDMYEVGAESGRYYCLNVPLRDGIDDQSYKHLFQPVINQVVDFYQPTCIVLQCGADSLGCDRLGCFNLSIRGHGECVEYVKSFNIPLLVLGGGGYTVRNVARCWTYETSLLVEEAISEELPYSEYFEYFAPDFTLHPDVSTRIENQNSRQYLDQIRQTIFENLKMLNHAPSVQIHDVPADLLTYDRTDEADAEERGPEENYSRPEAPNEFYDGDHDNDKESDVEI
Histone deacetylase 2, sequence (Q92769 whole entry): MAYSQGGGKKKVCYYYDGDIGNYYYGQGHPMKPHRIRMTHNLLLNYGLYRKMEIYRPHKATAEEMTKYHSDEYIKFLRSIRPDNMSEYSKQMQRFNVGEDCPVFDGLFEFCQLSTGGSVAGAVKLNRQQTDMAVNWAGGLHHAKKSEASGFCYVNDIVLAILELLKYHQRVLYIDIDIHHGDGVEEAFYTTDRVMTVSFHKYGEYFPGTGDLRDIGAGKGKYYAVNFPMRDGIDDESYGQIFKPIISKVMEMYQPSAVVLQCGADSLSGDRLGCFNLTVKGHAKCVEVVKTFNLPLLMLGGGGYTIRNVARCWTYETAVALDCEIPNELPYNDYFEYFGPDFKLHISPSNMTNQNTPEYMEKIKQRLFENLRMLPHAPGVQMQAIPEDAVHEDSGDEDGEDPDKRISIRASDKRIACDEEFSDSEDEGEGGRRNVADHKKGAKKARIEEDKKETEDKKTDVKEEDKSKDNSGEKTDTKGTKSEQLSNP
Vascular endothelial growth factor receptor 2, sequence (P35968 whole entry): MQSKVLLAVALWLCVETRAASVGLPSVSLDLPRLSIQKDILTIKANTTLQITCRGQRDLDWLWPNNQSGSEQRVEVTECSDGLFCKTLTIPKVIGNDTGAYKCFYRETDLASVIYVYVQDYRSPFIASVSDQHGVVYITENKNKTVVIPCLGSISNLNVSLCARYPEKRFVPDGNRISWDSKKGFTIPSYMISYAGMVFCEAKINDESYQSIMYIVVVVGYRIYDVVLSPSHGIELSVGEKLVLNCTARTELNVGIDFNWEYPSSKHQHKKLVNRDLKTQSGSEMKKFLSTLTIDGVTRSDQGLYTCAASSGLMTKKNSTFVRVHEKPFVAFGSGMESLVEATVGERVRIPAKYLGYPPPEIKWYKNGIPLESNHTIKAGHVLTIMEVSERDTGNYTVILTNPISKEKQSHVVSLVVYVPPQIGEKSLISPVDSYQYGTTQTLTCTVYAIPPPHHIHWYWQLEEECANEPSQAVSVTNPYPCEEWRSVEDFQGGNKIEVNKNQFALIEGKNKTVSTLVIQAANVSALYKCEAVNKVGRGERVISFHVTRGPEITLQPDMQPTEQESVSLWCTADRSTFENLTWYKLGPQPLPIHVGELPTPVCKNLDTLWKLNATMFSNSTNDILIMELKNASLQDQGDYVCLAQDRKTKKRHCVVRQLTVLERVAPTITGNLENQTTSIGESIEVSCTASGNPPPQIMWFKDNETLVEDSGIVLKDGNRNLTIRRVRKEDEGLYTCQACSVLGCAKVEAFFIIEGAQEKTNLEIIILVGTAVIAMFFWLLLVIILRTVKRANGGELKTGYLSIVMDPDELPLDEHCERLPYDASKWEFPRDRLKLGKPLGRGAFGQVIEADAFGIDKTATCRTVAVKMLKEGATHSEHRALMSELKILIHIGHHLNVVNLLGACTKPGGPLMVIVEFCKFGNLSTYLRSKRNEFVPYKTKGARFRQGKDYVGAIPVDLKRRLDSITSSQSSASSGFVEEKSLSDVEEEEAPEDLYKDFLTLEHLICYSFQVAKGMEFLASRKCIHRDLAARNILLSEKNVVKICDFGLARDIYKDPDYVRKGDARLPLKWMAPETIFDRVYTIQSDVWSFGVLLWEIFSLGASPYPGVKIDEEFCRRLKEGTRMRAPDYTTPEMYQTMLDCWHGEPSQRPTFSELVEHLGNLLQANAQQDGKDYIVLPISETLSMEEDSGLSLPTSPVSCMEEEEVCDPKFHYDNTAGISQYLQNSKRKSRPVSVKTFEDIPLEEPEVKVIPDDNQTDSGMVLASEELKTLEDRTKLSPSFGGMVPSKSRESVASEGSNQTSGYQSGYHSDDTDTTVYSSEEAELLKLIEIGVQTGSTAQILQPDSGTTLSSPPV
Histone deacetylase 4, sequence (P56524 whole entry): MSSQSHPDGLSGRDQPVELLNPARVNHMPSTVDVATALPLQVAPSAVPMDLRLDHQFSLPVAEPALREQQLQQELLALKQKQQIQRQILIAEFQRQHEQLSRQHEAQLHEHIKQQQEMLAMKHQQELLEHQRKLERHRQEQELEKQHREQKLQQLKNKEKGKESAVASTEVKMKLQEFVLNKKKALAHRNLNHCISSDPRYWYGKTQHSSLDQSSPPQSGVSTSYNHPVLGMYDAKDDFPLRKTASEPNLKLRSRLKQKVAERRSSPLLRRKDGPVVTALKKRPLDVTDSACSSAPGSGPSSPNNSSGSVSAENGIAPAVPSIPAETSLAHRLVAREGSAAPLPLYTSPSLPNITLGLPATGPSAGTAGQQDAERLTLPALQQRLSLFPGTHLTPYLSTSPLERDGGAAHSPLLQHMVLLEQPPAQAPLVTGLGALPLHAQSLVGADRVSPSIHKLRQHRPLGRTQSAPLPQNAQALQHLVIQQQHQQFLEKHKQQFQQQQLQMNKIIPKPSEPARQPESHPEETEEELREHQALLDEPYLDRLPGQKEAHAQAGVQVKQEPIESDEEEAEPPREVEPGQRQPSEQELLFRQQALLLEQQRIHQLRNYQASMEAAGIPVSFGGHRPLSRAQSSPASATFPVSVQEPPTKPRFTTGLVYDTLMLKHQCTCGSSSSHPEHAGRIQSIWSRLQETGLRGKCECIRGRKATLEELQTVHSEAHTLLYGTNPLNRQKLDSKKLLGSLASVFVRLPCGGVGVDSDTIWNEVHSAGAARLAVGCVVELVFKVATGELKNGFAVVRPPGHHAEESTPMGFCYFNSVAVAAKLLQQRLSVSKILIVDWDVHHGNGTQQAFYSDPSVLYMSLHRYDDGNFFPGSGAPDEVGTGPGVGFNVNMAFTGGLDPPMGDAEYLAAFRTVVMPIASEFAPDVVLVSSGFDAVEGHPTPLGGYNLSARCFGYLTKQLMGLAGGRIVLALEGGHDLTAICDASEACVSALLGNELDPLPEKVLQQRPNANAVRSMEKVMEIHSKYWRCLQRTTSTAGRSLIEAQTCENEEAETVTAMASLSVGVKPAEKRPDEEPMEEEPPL

For the compound `NC(=O)c1cccc2cn(-c3ccc(OCCCCCCC(=O)NO)cc3)nc12`, the IC50 in series [1] was 0.128 µM; in series [2] it was > 30 µM; in series [3], > 30 µM; in series [4], 1.57 µM.
Consider `NC(=O)c1cccc2[nH]c(-c3ccc(OCCCCC(=O)NO)cc3)nc12`, for which the concentration for half-maximal inhibition (IC50) in series [1] is 0.0121 µM; in [2] it was > 30 µM; in series [3] it was > 30 µM; in [4], > 30 µM.
`NC(=O)c1cccc2[nH]c(-c3ccc(OCCCCCCC(=O)NO)cc3)nc12`: the IC50 in series [1] is 0.038 µM; in series [2], 7 µM; in series [3], > 30 µM; in series [4], > 30 µM.
`NC(=O)c1cccc2[nH]c(-c3ccc(OCCCCCC(=O)NO)cc3)nc12`: the IC50 in series [1] is 0.0202 µM; in series [2], 5.5 µM; in series [3], > 30 µM; in series [4], > 30 µM.
Regarding `NC(=O)/C=C/c1ccc(COc2ccc(-n3cc4cccc(C(N)=O)c4n3)cc2)cc1`, the IC50 stood at 0.227 µM in series [1]; 10.6 µM in [2]; 0.34 µM in series [3]; 0.42 µM in series [4]; 3.59 µM in [5]; 6.98 µM in series [6]. Moreover, the IC50 in series [7] is 1.92 µM; in series [8], 6.55 µM; in [9] it was 31 µM; in series [10], 2.19 µM; in series [11] it was > 100 µM; in [12], 0.51 µM. Moreover, the IC50 in series [13] was > 100 µM; in series [14] it was 0.0034 µM; in [15], 26 µM.
As to `NC(=O)c1cccc2cn(-c3ccc(OCCCCCC(=O)NO)cc3)nc12`, the IC50 in [1] was 0.285 µM; in [2] it was > 30 µM; in [3], 4.28 µM; in series [4], 1.68 µM.
For `NC(=O)c1cccc2cn(-c3ccc(OCCCCCCCC(=O)NO)cc3)nc12`, the half-inhibitory concentration (IC50) is 0.245 µM in [1], 13.7 µM in [2], > 30 µM in [3] and 6.15 µM in series [4].
As to `NC(=O)c1ccc(COc2ccc(-n3cc4cccc(C(N)=O)c4n3)cc2)cc1`, the IC50 worked out at 0.0689 µM in [1]; 10.8 µM in series [2]; 0.35 µM in series [3]; 1.16 µM in [4]; 3.38 µM in [5]; 5.67 µM in [6]. The IC50 was 2.85 µM in [7]; 4.53 µM in series [8]; 42.1 µM in series [9]; 7.22 µM in series [10]; > 100 µM in series [11]; 0.54 µM in series [12]. Further, the values for the IC50 in series [13], in [14] and in series [15] were > 100 µM, 0.00592 µM and 5.41 µM, respectively. Also, the result in series [16], in series [19], in [20] and in [21] was Active. The inhibition result in series [17] was “Active”. Moreover, the Activity result in series [18] was “Dde”.
As for `NC(=O)c1cccc2cn(-c3ccc(OCCCC(=O)NO)cc3)nc12`, the IC50 is 0.102 µM in [1], > 30 µM in series [2], 9.93 µM in [3] and 12.7 µM in series [4].
As for `NC(=O)c1cccc2[nH]c(-c3ccc(OCCCC(=O)NO)cc3)nc12`, the IC50 in series [1] was 0.0142 µM; in [2] it was > 30 µM; in series [3], > 30 µM; in [4], > 30 µM.
Take `NC(=O)c1ccc(COc2ccc(-c3nc4c(C(N)=O)cccc4[nH]3)cc2)cc1`: the IC50 is 0.031 µM in [1]; 7.7 µM in series [2]; 1.08 µM in [3]; 1.16 µM in series [4]; 8.56 µM in series [5]; 16.4 µM in series [6]. For the same compound, the IC50 in [7] turned out to be 4.05 µM; in series [8], 26.4 µM.
For the compound `O=C(c1cc(Cc2n[nH]c(=O)c3ccccc23)ccc1F)N1CCN(C(=O)C2CC2)CC1` [OLAPARIB], the IC50 in series [3] was 0.69 µM; in series [4], 2.05 µM; in [5] it was 11.4 µM; in series [6], 5.89 µM; in series [7], > 30 µM; in series [8], 1.67 µM.
`NC(=O)c1cccc2[nH]c(-c3ccc(OCCCCCCCC(=O)NO)cc3)nc12`: the IC50 in series [1] was 0.0475 µM; in [2], > 30 µM; in [3], > 30 µM; in [4] it was > 30 µM.
As to `NC(=O)c1cccc2cn(-c3ccc(OCCCCC(=O)NO)cc3)nc12`, the IC50 in [1] is 0.102 µM; in [2], > 30 µM; in series [3], 2.41 µM; in series [4] it was 3.64 µM.
For `NC(=O)/C=C/c1ccc(COc2ccc(-c3nc4c(C(N)=O)cccc4[nH]3)cc2)cc1`, the IC50 came out at 0.0274 µM in [1]; 7.9 µM in series [2]; 0.69 µM in series [3]; 1.37 µM in series [4]; 4.7 µM in [5]; 7.72 µM in [6]. The IC50 in series [7] is 2.88 µM; in [8] it was 5.63 µM.
